Patent US20080214619A1, “Business method to treat and/or prevent a gastric acid disorder with a proton pump inhibitor (PPI) and a cholinergic agonist to induce rapid onset of PPI action with or without food” (priority 2006, published 2008)

Test system: acid secretion
Assay: Animal study, PPI + cholinergic stimulation: gastric acid output by titration of 30-min gastric collections in fasted, anesthetized, pylorus-ligated rats
Type: in vivo
Experimental: Rats are fasted overnight.
Rats are anesthetized and small laparotomy and gastrotomy are performed.
Tygon tubing placed through gastrotomy and into proximal duodenum; pylorus ligated
Tubing is placed through a small gastrotomy into the most dependent portion of the stomach; esophagogastric junction is ligated carefully to avoid vagal damage and to prevent aspiration
Gastrotomy and abdomen is closed around tubing
Stomach is gently rinsed with about 0.9% NaCl at about pH 7.
Gastric contents are collected by gravity for about 30 min, at which time is rinsed with about 5 ml of NaCl and collected; 30-min contents is titrated with about […] using radiometer automatic titrator to determine basal acid output (“BAO”)
Rats (3 per group) are randomized to 1 of 3 treatments: • A. Control—intraduodenal (ID) HCO3; • B. Carbachol about 15 μg/kg IP+ID HCO3; and • C. ID omeprazole (about 20 mg/kg) is dissolved in HCO3+carbachol about 15 μg/kg IP
Gastric contents are collected by gravity for about 30 min, at which time stomachs are rinsed with about 5 ml of NaCl and collected; contents are titrated with 0.01 M NaOH using a Radiometer pH meter; about 30-min collection is repeated ×6.

Question: With `C[N+](C)(C)CCOC(N)=O` [carbachol] as the compound, how does the “effect on acid secretion” value (carbachol about 15 μg/kg IP + ID HCO3, 3 per group) read?
Answer: rapidly stimulates acid secretion

Question: And the “time at which acid secretion reaches a maximum level following administration” value (carbachol about 15 μg/kg IP + ID HCO3, gradually diminishes thereafter)?
Answer: about 90 min
